Measured values as given in PMC12310718, “Evaluation of newly synthesized schiff base Pd(II) complexes for prostate cancer treatment through in vitro cytotoxicity and molecular mechanistic studies” (Frontiers in Chemistry, 2025).

Tests used:
PC-3 = assay: MTT cytotoxicity assay, PC-3; assay type: cell-based, human; details: mean ± SD
From the text: (§1) In this investigation, two experimental groups of cancer cell lines were employed: human prostate carcinoma cells lacking prostate-specific membrane antigen (PSMA) and androgen receptor independence (DU-145 and HTB-81™), alongside human prostate carcinoma cells (PC-3 and CRL-1435™). The control group comprised non-cancerous human fibroblasts (MRC-5 and CCL-171™). All cell lines utilized in this study were procured from the American Type Culture Collection (ATCC, Manassas, VA, United States). The cells were maintained in a complete medium containing high-glucose DMEM, supplemented with 10% fetal bovine serum and 200 mM L-glutamine (reagents sourced from Sigma-Aldrich, St. Louis, MO, United States). Cultivation of the cells was conducted in 25 cm^2 flasks (Thermo Fisher Scientific, Waltham, MA, United States) at 37°C under conditions of absolute humidity and a 5% CO2 atmosphere. The cytotoxic effects of three newly synthesized Pd(II) complexes were assessed on DU-145, PC-3, and MRC-5 cell lines using the MTT assay. For comparison, the cytotoxicity of cisplatin, a clinically established chemotherapeutic agent, was also evaluated across all cell lines. Cells were harvested during their exponential growth phase, counted, and seeded at a density of 5 × 10^3 cells per well in 96-well culture plates. […] The treated cells were incubated under identical conditions (37°C, 5% CO2, absolute humidity) for durations of 24, 48, and 72 h. After incubation, the medium was removed, and an MTT solution was added to each well. The cells were then incubated for an additional 2 h to facilitate the reduction of thiazolyl blue tetrazolium bromide in the MTT solution. Subsequently, the MTT solution was carefully removed, and the resulting formazan crystals were solubilized in DMSO. […] All experiments were performed in triplicate and repeated across three independent runs. Cell viability was calculated as a percentage by dividing the absorbance of treated cells (minus blank absorbance) by the average absorbance of untreated control cells (minus blank absorbance) and multiplying by 100. % of the viable cells=absorbance of treated cell−absorbance of blank / absorbance of untreated cell−absorbance of blank * 100 […] This analysis was performed using Microsoft Office Excel 2010, leveraging its curve-fitting capabilities to determine precise inhibitory concentrations.

CT-DNA = assay: DNA viscosity measurement; assay type: binding, calf; details: 0.01 mM DNA in PBS, [2c]/[DNA] 0.1-1
Method: All chemicals were used without purification, and all of them are commercially available. ^1H NMR and ^13C NMR spectra were recorded in DMSO-d6 as a solvent with a Bruker Ascend 400 (400 MHz) spectrometer. Chemical shifts are given in parts per million (δ) down from tetramethylsilane as the internal standard. For elemental analyses (C, H, O, N) were used Elementar Vario MICRO elemental analyzer. IR spectra were obtained on Perkin Elmer FT-IR spectrometer, two equipped with a DTGS detector. Mass spectra were recorded at 6546 LC/Q-TOF (Agilent, Santa Clara, CA, SAD) equipped with Jet Stream ion source and connected with 1,290 Infinity II HPLC (Agilent, Santa Clara, CA, AD). Data were collected every second in the mass area 100–1,000 Da. Molar conductance of the Pd(II) complexes was measured on freshly prepared 10^–3 M solutions in DMSO at room temperature using Crison EC-Meter basic 30+conductivity cell. The viscosity of the DNA solution was measured in the absence and presence of increasing amounts of 2c. To the 0.01 mM DNA solution in PBS, a corresponding ratio of examinated compound was added at ratio [2c]/[DNA]: 0.1; 0.2; 0.3; 0.4; 0.5; 0.6; 0.7; 0.8; 0.9 and 1. Data are presented as a plot of (η/η0)1/3 vs. ratio of [2c]/[DNA], where η is the DNA viscosity in the presence of the compound, η0 is the viscosity of DNA in buffer alone.

DU-145 cells [1] = assay: Mitochondrial membrane potential by JC-10 staining; assay type: cell-based, human; details: DU-145, IC50 of complex, 48 h
Method: JC-10 gathers in the mitochondria of living cells, forming red fluorescence aggregates. On the other hand, JC-10 is also present in a monomeric cytosolic form and dyes cells green in necrotic and apoptotic cells. Mitochondrial membrane potential was assessed using the dye JC-10. DU-145 cells were seeded at a density of 2 × 10^4 cells per well in 24-well cell culture plates and incubated in complete DMEM medium at 37°C with 5% CO2 for 24 h. […] The cells were treated for 20 min with 2.5 μM JC-10 dye in warm PBS. JC-10 accumulation in cells was evaluated using a Gramma Libero FLUO500T trinocular inverted fluorescence microscope. We used the 525/590 nm fluorescence emission ratio for our quantification analysis. We captured images using the 2020 S-EYE Setup Microscope camera and the S-EYE_Setup-1.6.0.11 software. The ImageJ program was used to analyse the images.

DU-145 cells [2] = assay: Clonogenic assay; assay type: cell-based, human; details: DU-145, four concentrations, 2 weeks colony formation
Method: In this assay ([Franken et al., 2006]), cells are seeded at low densities and incubated for 2 weeks to allow colony formation, with colonies defined as clusters of ≥50 cells. Treated and untreated cells are compared to assess survival fractions (SF), calculated by normalizing the plating efficiency (PE) of treated cells to that of controls. Colonies are fixed with 6% glutaraldehyde, stained with 0.5% crystal violet, and colonies were quantified using ImageJ software version 1.54 with a standardized macro. Images were first converted to 8-bit grayscale, and background noise was reduced using the “Subtract Background” function. Thresholding was applied to isolate colonies, and the “Analyze Particles” tool was used to count colonies based on defined size and circularity parameters. Only colonies with an area corresponding to ≥50 cells and a circularity range of 0.3–1.0 were included. Overlapping or merged colonies were excluded unless distinct borders were visually discernible. All image processing steps were applied consistently across samples to ensure reproducibility. Data are represented as dose-response survival curves.
Plating efficiency is calculated by the following formula: PE=Number of colonies/Number of cells seeded×100%
Survival fraction is calculated when all plating efficiencies are calculated according to the formula: SF=PEtreated/PEcontrol

DU-145 = assay: MTT cytotoxicity assay, DU-145; assay type: cell-based, human; details: mean ± SD
From the text: as §1

MRC-5 = assay: MTT cytotoxicity assay, MRC-5 fibroblasts; assay type: cell-based, human; details: mean ± SD
From the text: as §1

[3] = Stability assay in PBS by UV-Vis spectra; assay type: physicochemical; details: ∼10^–5 M, less than 0.7% DMSO, UV-Vis after 0, 24 and 48 h
Method: The complex used for the testing was dissolved in the minimal amount of DMSO (dimethylsulfoxide) possible and diluted with PBS of ∼10^–5 M in concentration and less than 0.7% DMSO. UV-Vis spectra were recorded after 0, 24 and 48 h in the range 200–600 nm. Absorption spectra were recorded on UV–Vis Perkin–Elmer Lambda 35 spectrophotometer equipped with water thermostated cell.

[4] = Stability in DMSO by UV-Vis spectra; assay type: physicochemical; details: UV-Vis 200–600 nm after t = 0, 24, and 48 h
Method: UV-Vis spectra were recorded in DMSO as a solvent, at room temperature, and the data of the absorption wavelength maxima (λ max) are given in Table 3 and Figure 3. […] Further, two more bands are attributed to the ligand 1b, the medium intensity π → π* and very weak and broad n→π* transition of the imine group. Upon coordination, the π → π* band of the imine group decreases in intensity, while the new band at 393 nm, attributed to Ligand-to-Metal Charge Transfer (LMCT), appears ([Felicio et al., 2001]; [Hussain et al., 2019]). The stability of Schiff base metal complexes is a key factor influencing their performance during biological evaluations. Unstable complexes, prone to hydrolysis or degradation, may lead to reduced efficacy, altered mechanisms of action, or false-positive/negative outcomes. Palladium (II), typically adopting a square-planar geometry ([Kostić et al., 2003]), forms stable complexes with bidentate Schiff base ligands, but its coordination environment can be sensitive to ligand exchange. […] In order to determine the stability of selected complex 2b in DMSO, a series of UV-Vis spectra in the range of 200–600 nm were recorded after t = 0, 24, and 48 h (Supplementary Figure SI17) ([Marjanović et al., 2023]).

| Structure (SMILES) | IC50 (PC-3; PC-3, 24 h drug exposure) | IC50 (PC-3; PC-3, 48 h drug exposure) | IC50 (PC-3; PC-3, 72 h drug exposure) | DNA binding mode from viscosity (CT-DNA) | increase of JC-10 green/JC-10 red ratio compared to untreated cells (DU-145 cells [1]) | long-term antiproliferative effect (survival fraction) (DU-145 cells [2]) | IC50 (DU-145; DU-145, 24 h drug exposure) | IC50 (DU-145; DU-145, 48 h drug exposure) | IC50 (DU-145; DU-145, 72 h drug exposure) | IC50 (MRC-5; MRC-5, 24 h drug exposure) | IC50 (MRC-5; MRC-5, 48 h drug exposure) | IC50 (MRC-5; MRC-5, 72 h drug exposure) | stability in solution (PBS) [3] | stability in DMSO [4] |
| --- | --- | --- | --- | --- | --- | --- | --- | --- | --- | --- | --- | --- | --- | --- |
| C(=NCCc1c[nH]c2ccccc12)c1ccccc1[O][Pd][O]c1ccccc1C=NCCc1c[nH]c2ccccc12 [Complex 2c] | 38.4 ± 3.6 µM | 12.5 ± 1.1 µM | 8.6 ± 0.9 µM | intercalates very weakly | 3.2 fold | most pronounced effect | 48.4 ± 5.1 µM | 11 ± 1.2 µM | 7.1 ± 0.8 µM | 80.7 ± 8.1 µM | 75.6 ± 7.7 µM | 42.3 ± 4.1 µM | – | – |
| N.N.[Cl][Pt][Cl] [CP, cisplatin, reference compound] | – | 29.7 ± 3.1 µM | 21.9 ± 2.2 µM | – | – | – | 22.3 ± 2.4 µM | 11.4 ± 1.1 µM | 8.2 ± 0.8 µM | 90.1 ± 9.2 µM | 41.9 ± 4.4 µM | 24.4 ± 0.8 µM | – | – |
| Oc1ccc(CCN=Cc2ccccc2[O][Pd][O]c2ccccc2C=NCCc2ccc(O)cc2)cc1 [Complex 2b] | 75.2 ± 7.2 µM | 58.6 ± 5.6 µM | 29.1 ± 2.8 µM | – | 2.9 fold | – | 75.9 ± 7.3 µM | 19.2 ± 2.1 µM | 8.7 ± 0.8 µM | 87.7 ± 8.8 µM | 78.5 ± 7.7 µM | 49.2 ± 5.1 µM | sufficient stability in solution under physiologically relevant conditions | retaining its structural integrity without signs of ligand displacement or decomposition |
| Oc1ccc(CN=Cc2ccccc2[O][Pd][O]c2ccccc2C=NCc2ccc(O)cc2)cc1 [Complex 2a] | 94.1 ± 9.1 µM | 89.8 ± 8.8 µM | 79.3 ± 7.7 µM | – | 2.1 fold | – | 83.6 ± 9.2 µM | 17.5 ± 1.6 µM | 9.3 ± 0.9 µM | 94.3 ± 9.7 µM | 92.4 ± 9.1 µM | 83 ± 8.1 µM | – | – |
